In ChEMBL document CHEMBL4028801, “A multifactorial approach to hepatobiliary transporter assessment enables improved therapeutic compound development” (Toxicol Sci, 2013):

Legend:
[1] = target: ATP-binding cassette sub-family C member 2 (Homo sapiens, UniProt Q92887); test: Inhibition of human MRP2 overexpressed in Sf9 cell membrane vesicles assessed as uptake of [3H]-estradiol-17beta-D-glucuronide in presence of ATP and GSH measured after 20 mins by membrane vesicle transport assay
[2] = AUC in human at 300 to 900 mg, po QD after 24 hrs; format: ADME, organism-based; details: in vivo
[3] = Drug concentration at steady state in human at 300 to 900 mg, po QD after 24 hrs; format: ADME, organism-based; details: in vivo, read-out: Css
[4] = target: ATP-binding cassette sub-family C member 3 (Homo sapiens, UniProt O15438); test: Inhibition of human MRP3 overexpressed in Sf9 insect cell membrane vesicles assessed as uptake of [3H]-estradiol-17beta-D-glucuronide in presence of ATP and GSH measured after 10 mins by membrane vesicle transport assay; format: ADME, cell-based
[5] = Ratio of drug concentration at steady state in human at 300 to 900 mg, po QD after 24 hrs to IC50 for human MRP2 overexpressed in Sf9 insect cells; format: ADME, organism-based; details: in vivo
[6] = target: T1, ATP-binding cassette sub-family C member 4 (Homo sapiens, UniProt O15439); test: Inhibition of human MRP4 overexpressed in Sf9 cell membrane vesicles assessed as uptake of [3H]-estradiol-17beta-D-glucuronide in presence of ATP and GSH measured after 20 mins by membrane vesicle transport assay; format: ADME, cell-based
T1 sequence (O15439 whole entry): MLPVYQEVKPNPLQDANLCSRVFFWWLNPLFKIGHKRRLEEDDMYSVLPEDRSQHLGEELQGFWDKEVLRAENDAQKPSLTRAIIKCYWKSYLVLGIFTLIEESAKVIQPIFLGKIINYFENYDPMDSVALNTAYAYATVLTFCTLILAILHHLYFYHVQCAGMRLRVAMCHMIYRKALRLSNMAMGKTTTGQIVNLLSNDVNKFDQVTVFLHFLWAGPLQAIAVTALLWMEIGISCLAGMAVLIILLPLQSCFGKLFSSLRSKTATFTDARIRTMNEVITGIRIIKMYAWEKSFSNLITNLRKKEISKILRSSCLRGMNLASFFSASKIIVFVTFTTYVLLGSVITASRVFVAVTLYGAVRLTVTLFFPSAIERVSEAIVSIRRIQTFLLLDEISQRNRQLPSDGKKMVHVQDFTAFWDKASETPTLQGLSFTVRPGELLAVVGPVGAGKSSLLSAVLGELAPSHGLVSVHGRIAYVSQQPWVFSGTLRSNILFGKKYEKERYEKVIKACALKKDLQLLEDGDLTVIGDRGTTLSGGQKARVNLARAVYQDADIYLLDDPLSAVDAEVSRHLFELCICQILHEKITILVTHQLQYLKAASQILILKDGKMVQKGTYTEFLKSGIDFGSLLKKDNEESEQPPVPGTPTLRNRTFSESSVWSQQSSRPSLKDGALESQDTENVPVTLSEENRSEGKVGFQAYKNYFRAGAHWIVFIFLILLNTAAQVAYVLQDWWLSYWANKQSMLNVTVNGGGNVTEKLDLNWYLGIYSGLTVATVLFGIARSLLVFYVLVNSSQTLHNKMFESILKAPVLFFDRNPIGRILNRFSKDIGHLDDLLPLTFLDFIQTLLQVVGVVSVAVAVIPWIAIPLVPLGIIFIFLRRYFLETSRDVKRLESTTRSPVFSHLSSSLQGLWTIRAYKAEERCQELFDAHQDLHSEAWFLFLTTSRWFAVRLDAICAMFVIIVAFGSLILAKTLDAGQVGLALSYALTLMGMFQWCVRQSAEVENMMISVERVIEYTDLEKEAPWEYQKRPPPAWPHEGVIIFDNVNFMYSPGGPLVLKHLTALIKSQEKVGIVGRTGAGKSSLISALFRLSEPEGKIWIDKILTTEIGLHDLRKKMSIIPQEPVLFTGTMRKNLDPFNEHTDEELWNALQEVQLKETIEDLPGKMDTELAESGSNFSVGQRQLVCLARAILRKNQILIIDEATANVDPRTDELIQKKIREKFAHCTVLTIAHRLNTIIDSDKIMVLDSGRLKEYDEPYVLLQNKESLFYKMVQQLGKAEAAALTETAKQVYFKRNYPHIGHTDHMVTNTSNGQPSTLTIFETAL

[7] = Ratio of drug concentration at steady state in human at 300 to 900 mg, po QD after 24 hrs to IC50 for human MRP4 overexpressed in Sf9 insect cells; format: ADME, organism-based; details: in vivo
[8] = Ratio of drug concentration at steady state in human at 300 to 900 mg, po QD after 24 hrs to IC50 for human BSEP overexpressed in Sf9 insect cells; format: ADME, organism-based; details: in vivo
[9] = Ratio of drug concentration at steady state in human at 20 to 40 mg, iv QD after 24 hrs to IC50 for human BSEP overexpressed in Sf9 insect cells; format: ADME, organism-based; details: in vivo
Homo sapiens = test: Drug concentration at steady state in human at 20 to 40 mg, iv QD after 24 hrs; format: ADME, organism-based; details: in vivo
Bile salt export pump = Bile salt export pump (Homo sapiens, UniProt O95342); test: Inhibition of human BSEP overexpressed in Sf9 cell membrane vesicles assessed as uptake of [3H]-taurocholate in presence of ATP measured after 15 to 20 mins by membrane vesicle transport assay; format: ADME, cell-based
[10] = AUC in human at 20 to 40 mg, iv QD after 24 hrs; format: ADME, organism-based; details: in vivo
[11] = Ratio of drug concentration at steady state in patient with advanced phase CML and Ph+ ALL at 100 mg, po BID after 12 hrs to IC50 for human MRP4 overexpressed in Sf9 insect cells; format: ADME, organism-based; details: in vivo
[12] = AUC in patient with chronic phase CML at 70 to 90 mg, po BID after 12 hrs; format: ADME, organism-based; details: human, in vivo
[13] = AUC in patient with advanced phase CML and Ph+ ALL at 100 mg, po BID after 12 hrs; format: ADME, organism-based; design: dose 100 mg, time < 12 hr, route oral; details: human, in vivo
[14] = Ratio of drug concentration at steady state in patient with chronic phase CML at 70 to 90 mg, po BID after 12 hrs to IC50 for human BSEP overexpressed in Sf9 insect cells; format: ADME, organism-based; details: in vivo
[15] = Drug concentration at steady state in patient with chronic phase CML at 70 to 90 mg, po BID after 12 hrs; format: ADME, organism-based; details: human, in vivo, read-out: Css
[16] = Ratio of drug concentration at steady state patient with chronic phase CML at 70 to 90 mg, po BID after 12 hrs to IC50 for human MRP4 overexpressed in Sf9 insect cells; format: ADME, organism-based; details: in vivo
[17] = Ratio of drug concentration at steady state in patient with advanced phase CML and Ph+ ALL at 100 mg, po BID after 12 hrs to IC50 for human BSEP overexpressed in Sf9 insect cells; format: ADME, organism-based; details: in vivo
[18] = Drug concentration at steady state in patient with advanced phase CML and Ph+ ALL at 100 mg, po BID after 12 hrs; format: ADME, organism-based; details: human, in vivo, read-out: Css
[19] = Drug concentration at steady state in human at 60 to 120 mg, po QD after 24 hrs; format: ADME, organism-based; details: in vivo, read-out: Css
[20] = Ratio of drug concentration at steady state in human at 60 to 120 mg, po QD after 24 hrs to IC50 for human BSEP overexpressed in Sf9 insect cells; format: ADME, organism-based; details: in vivo
[21] = Ratio of drug concentration at steady state in human at 60 to 120 mg, po QD after 24 hrs to IC50 for human MRP4 overexpressed in Sf9 insect cells; format: ADME, organism-based; details: in vivo
[22] = AUC in human at 60 to 120 mg, po QD after 24 hrs; format: ADME, organism-based; details: in vivo
[23] = AUC in human at 30 to 60 mg, po QD after 24 hrs; format: ADME, organism-based; details: in vivo

Chain of ATP-binding cassette sub-family C member 3 (O15438 whole entry): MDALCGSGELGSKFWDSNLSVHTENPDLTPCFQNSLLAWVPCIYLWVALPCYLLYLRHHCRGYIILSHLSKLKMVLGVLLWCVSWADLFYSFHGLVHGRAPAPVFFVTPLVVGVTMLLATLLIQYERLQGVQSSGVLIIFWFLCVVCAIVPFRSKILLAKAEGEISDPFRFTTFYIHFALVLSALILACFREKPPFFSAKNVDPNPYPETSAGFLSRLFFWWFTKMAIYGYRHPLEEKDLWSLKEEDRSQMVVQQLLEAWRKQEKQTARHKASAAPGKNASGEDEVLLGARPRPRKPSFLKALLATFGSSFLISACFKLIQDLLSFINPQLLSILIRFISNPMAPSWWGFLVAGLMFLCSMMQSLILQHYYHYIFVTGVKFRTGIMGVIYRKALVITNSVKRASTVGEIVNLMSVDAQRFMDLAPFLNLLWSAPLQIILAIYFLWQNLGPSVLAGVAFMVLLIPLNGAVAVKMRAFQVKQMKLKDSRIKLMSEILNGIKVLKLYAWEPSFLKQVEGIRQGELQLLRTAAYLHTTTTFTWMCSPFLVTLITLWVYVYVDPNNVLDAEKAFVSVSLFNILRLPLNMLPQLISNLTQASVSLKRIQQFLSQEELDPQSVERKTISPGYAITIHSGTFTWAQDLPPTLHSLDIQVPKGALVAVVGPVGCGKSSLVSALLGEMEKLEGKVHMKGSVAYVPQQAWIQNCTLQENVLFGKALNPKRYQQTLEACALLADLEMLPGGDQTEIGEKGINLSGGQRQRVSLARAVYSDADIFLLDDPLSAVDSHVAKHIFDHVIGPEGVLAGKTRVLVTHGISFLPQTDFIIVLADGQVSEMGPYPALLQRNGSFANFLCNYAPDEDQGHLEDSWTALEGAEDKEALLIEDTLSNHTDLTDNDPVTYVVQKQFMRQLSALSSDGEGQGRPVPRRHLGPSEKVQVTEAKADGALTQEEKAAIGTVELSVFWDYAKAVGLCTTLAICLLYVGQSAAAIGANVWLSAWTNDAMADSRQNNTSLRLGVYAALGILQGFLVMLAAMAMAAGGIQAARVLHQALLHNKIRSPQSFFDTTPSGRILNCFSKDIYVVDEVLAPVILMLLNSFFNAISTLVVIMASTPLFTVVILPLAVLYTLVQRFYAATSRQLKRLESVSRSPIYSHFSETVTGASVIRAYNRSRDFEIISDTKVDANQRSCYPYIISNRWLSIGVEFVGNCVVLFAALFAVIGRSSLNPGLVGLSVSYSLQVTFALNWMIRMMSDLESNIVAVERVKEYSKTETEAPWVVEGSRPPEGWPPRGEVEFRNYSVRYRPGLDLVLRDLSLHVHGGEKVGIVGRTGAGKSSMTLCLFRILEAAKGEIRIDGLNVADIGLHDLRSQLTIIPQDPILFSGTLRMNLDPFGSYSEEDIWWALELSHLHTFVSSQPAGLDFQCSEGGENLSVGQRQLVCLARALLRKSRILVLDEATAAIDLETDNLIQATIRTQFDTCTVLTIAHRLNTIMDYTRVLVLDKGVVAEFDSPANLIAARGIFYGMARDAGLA
Chain of ATP-binding cassette sub-family C member 2 (Q92887 whole entry): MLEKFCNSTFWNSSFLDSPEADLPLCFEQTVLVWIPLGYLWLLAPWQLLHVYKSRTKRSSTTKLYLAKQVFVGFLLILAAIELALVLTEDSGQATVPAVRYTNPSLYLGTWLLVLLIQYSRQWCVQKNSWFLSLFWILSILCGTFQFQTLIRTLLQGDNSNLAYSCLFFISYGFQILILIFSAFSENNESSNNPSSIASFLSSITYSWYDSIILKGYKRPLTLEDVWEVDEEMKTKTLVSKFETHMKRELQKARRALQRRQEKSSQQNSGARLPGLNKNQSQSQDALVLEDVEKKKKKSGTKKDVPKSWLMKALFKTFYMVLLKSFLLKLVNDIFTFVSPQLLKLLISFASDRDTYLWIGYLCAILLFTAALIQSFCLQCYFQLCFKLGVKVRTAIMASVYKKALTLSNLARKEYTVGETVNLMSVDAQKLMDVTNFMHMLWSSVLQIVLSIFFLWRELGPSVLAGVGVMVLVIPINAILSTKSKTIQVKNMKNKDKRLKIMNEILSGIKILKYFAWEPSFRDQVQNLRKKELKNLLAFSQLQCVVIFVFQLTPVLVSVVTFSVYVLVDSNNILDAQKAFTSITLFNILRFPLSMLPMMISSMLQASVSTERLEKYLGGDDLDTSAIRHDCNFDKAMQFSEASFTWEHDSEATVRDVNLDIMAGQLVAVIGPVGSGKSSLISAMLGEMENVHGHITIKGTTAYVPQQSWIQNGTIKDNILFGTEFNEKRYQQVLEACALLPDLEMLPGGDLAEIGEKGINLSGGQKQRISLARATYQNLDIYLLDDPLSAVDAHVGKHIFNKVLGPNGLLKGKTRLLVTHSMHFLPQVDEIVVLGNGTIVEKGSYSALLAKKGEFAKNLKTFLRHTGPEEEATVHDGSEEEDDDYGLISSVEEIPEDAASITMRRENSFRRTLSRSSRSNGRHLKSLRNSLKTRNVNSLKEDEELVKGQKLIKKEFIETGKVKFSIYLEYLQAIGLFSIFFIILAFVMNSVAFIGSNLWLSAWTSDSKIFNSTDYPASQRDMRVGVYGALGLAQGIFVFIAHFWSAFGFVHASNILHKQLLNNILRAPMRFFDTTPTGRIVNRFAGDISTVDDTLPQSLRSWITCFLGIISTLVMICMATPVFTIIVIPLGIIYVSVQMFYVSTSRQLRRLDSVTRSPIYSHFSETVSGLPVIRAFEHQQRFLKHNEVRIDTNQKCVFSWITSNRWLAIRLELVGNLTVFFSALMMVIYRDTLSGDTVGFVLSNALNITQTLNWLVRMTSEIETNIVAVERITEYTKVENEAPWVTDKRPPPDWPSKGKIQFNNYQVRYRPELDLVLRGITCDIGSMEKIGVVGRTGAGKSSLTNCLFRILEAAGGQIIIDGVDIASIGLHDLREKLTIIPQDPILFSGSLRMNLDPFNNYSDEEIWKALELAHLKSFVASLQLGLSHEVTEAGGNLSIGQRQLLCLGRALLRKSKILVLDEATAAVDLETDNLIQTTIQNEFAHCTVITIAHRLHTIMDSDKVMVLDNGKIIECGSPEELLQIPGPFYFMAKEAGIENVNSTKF
Chain of Bile salt export pump (O95342 whole entry): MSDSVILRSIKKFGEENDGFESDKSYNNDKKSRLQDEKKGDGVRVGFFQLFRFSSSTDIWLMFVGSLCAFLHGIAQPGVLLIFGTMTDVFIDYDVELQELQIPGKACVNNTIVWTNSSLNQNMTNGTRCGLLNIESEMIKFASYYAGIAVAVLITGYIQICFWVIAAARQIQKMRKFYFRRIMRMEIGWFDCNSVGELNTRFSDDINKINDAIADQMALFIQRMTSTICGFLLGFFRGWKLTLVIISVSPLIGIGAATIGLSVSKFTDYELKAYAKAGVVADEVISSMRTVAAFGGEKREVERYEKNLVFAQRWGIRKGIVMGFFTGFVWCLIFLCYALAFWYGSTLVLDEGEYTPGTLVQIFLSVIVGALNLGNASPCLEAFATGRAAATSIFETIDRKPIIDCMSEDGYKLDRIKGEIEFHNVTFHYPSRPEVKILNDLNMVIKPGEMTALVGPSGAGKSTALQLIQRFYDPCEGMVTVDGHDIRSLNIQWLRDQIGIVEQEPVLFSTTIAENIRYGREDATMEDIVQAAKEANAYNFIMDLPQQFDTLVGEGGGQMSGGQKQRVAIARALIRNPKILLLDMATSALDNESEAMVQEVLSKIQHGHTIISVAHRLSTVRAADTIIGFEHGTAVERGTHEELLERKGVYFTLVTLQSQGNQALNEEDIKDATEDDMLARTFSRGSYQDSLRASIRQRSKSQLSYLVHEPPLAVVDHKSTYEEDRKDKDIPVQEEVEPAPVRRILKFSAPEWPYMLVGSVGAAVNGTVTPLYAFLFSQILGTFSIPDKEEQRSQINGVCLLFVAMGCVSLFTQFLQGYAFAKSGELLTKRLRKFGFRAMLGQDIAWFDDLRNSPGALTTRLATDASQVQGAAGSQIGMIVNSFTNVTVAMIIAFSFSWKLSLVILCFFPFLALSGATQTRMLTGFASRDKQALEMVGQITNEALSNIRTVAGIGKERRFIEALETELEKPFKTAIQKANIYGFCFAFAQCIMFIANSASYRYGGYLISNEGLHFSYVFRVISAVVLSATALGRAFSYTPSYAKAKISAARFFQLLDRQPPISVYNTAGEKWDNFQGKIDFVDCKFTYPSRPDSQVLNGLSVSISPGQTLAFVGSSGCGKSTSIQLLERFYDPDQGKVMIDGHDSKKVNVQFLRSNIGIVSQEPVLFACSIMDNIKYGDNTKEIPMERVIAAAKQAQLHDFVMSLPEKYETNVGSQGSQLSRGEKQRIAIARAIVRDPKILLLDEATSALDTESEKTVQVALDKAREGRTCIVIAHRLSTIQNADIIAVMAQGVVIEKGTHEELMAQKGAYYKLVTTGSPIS

CO[C@H]1/C=C/O[C@@]2(C)Oc3c(C)c(O)c4c(c3C2=O)C2=NC3(CCN(CC(C)C)CC3)NC2=C(NC(=O)/C(C)=C\C=C\[C@H](C)[C@H](O)[C@@H](C)[C@@H](O)[C@@H](C)[C@H](OC(C)=O)[C@@H]1C)C4=O [RIFABUTIN]
IC50 [1]: 49.8 µM
AUC at 24 h [2]: 2.43 µM·h
concentration at 24 h [3]: 101 nM
IC50 [4]: > 133 µM
Ratio [5]: 0.002
IC50 [6]: 15.9 µM
Ratio [7]: 0.006
Ratio [8]: 0.004

COc1ccc2[nH]c([S+]([O-])Cc3ncc(C)c(OC)c3C)nc2c1 (stereo not drawn) [OMEPRAZOLE]
IC50 [1]: > 133 µM
Ratio [9]: 0.005
Css (Homo sapiens): 468.2 nM
IC50 [4]: > 133 µM
IC50 (Bile salt export pump): 99 µM
IC50 [6]: > 133 µM
AUC at 24 h [10]: 11.2 µM·h

Cc1nc(Nc2ncc(C(=O)Nc3c(C)cccc3Cl)s2)cc(N2CCN(CCO)CC2)n1.O [DASATINIB]
IC50 [1]: > 133 µM
Ratio [11]: 0.002
AUC at 12 h [12]: 0.624 µM·h
AUC at 12 h [13]: 0.624 µM·h
Ratio [14]: 0.004
IC50 [4]: > 133 µM
concentration at 12 h [15]: 52 nM
IC50 (Bile salt export pump): 13.1 µM
IC50 [6]: 27.3 µM
Ratio [16]: 0.002
Ratio [17]: 0.004
concentration at 12 h [18]: 52 nM

COC(=O)C1=C(C)NC(C)=C(C(=O)OCCN(C)Cc2ccccc2)C1c1cccc([N+](=O)[O-])c1 (stereo not drawn) [NICARDIPINE]
concentration at 24 h [19]: 30 nM
IC50 [1]: > 133 µM
Ratio [20]: 0.004
IC50 [4]: > 133 µM
Ratio [21]: 0
IC50 [6]: 88 µM
AUC at 24 h [22]: 0.72 µM·h

COC(=O)C1=C(C)NC(C)=C(C(=O)OC)C1c1ccccc1[N+](=O)[O-] [NIFEDIPINE]
IC50 [1]: > 133 µM
AUC at 24 h [23]: 3.48 µM·h
IC50 [4]: > 133 µM
IC50 [6]: 16.6 µM
